Measured values: patent publication US7119063B2, “Memory-enhancing peptides and the use thereof” (Shanghai Cas Intide Biotech Co., Ltd., priority 2000, dated 2006)

Test system: learning and memory process of mouse
Experiment: platform-jumping electrical-shock avoidance test, learning and 24 h memory, scopolamine-induced impediment
Assay type: in vivo
Conditions: for Memory Results EN / Memory Results RT / Learning Results EN / Learning Results RT: scopolamine 1 mg/kg; for Memory Results EN / Memory Results RT: memory test 24 hrs later; for Learning Results EN / Learning Results RT: training trial
Experimental: The pharmacological tests of memory-enhancing peptide in this invention have been performed as following: the animals have been divided into three groups: drug administration group, control group and model group, with each group administrated with memory-enhancing peptide, saline and scopolamine respectively. In the test, the groups except control group were injected with scopolamine after the administration of medicine about 50 min., 10 min. later, the training began. First, the animals will be put into reaction box for 3 min. before each trails to familiarize them with the environment. Then, the reaction box are charged with 36V alternating current. When the animal subjects to electrical shock, it will jump up to the central platform to avoid harmful stimulation as a normal response. Most of animals may be return to the copper curdles twice or even more times, but they will jump back to the platform swiftly as the results of electrical shock. Each test trail will be performed for 5 min. and two following indices will be used to represent the learning results: (I) the number of total error (EN) during the whole training period; (2) the reaction time (RT) for the first returning to the copper curdle in the trail. The trails will repeat again 24 hrs later as memory test.

Row | Compound | effect on memory and learning impediment induced by scopolamine, compared with model group (0.5 μg and 1 μg/kg, longer incubation period and lesser error numbers, P<0.01) | effect on memory and learning impediment induced by scopolamine, compared with Huperzine A (100 μg/kg) (0.5 μg/kg and 1 μg/kg) | Memory Results EN (drug 0.25 μg/kg) | Memory Results RT (drug 0.25 μg/kg) | Learning Results EN (drug 0.25 μg/kg) | Learning Results RT (drug 0.25 μg/kg) | Memory Results EN (drug 0.5 μg/kg) | Memory Results RT (drug 0.5 μg/kg) | Learning Results EN (drug 0.5 μg/kg) | Learning Results RT (drug 0.5 μg/kg) | Memory Results EN (drug 1 μg/kg) | Memory Results RT (drug 1 μg/kg) | Learning Results EN (drug 1 μg/kg) | Learning Results RT (drug 1 μg/kg) | effect on memory and learning impediment induced by scopolamine (summary of Table 1) (mouse, in vivo) | Memory Results EN (drug 100 μg/kg) | Memory Results RT (drug 100 μg/kg) | Learning Results EN (drug 100 μg/kg, number of total errors) | Learning Results RT (drug 100 μg/kg, reaction time for first return to the copper curdle)
1 | PyroGlu-Asn-Cys(S-Bu^t)-Pro-Arg [MEP-531] | obviously improve | better effects than Huperzine A | 0.9 | 197.6 s | 0.3 | 78.8 s | 0.5 | 245.5 s | 0.2 | 241.6 s | 0.3 | 282.8 s | 0.3 | 267.6 s | remarkably ameliorate | – | – | – | –
2 | C/C=C1\[C@H]2C=C(C)C[C@]1(N)c1ccc(=O)[nH]c1C2 [Huperzine A, reference compound] | – | – | – | – | – | – | – | – | – | – | – | – | – | – | – | 0.9 | 231.9 s | 1.3 | 120.5 s
